Data on 3 compounds can be found in article PMC6368403, “Identification of a bilirubin receptor that may mediate a component of cholestatic itch” (eLife, 2019).

Several values for one entry are separate records, joined by “and”; a condition that tells them apart may be missing. Identical values can stand only once.

One assay addresses T1, MRGPRC11 (Mus musculus, UniProt Q8CIP3).
T1 construct: expressed in transfected cells
T1 sequence (Q8CIP3 1-322): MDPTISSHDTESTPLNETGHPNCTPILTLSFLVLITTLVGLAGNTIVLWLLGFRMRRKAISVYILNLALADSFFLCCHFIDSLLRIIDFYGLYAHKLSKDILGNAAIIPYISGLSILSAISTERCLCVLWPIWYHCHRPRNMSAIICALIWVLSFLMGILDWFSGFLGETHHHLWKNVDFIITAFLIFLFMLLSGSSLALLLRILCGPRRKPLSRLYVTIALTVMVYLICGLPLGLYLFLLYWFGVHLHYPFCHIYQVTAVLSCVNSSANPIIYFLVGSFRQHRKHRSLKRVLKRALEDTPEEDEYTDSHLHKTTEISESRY
Put plainly: Ca2+ imaging and concentration-Ca2+ response in HEK293 cells expressing MRGPRC11. It is filed as cell-based. The note with it: three replicates, Fig 2-N. The procedure: (§1) All cultured cells were maintained in DMEM supplemented with 10% FBS and 1% Penicillin/Streptomycin at 37°C, 5% CO2. All data included were generated from cells tested for mycoplasma and found to be negative. Cells were imaged in calcium imaging buffer (CIB; 10 mM HEPES, 1.2 mM NaHCO3, 130 mM NaCl, 3 mM KCl, 2.5 mM CaCl2, 0.6 mM MgCl2, 20 mM glucose, and 20 mM sucrose at pH 7.4 and 290–300 mOsm). To monitor changes in intracellular [Ca^2+] ([Ca^2+]i), cells were loaded with either Fura 2-AM (HEK293 cells) or Fluo 4-AM (DRG neurons and mast cells) for 30 min in the dark at 37°C in CIB just prior to imaging. With Fura 2-AM, emission at 510 nm was monitored from excitation at both 340 nm and 380 nm. With Fluo 4-AM, emission at 520 nm was monitored from excitation at 488 nm. Cells were identified as responding if the intracellular [Ca^2+] rose by either 50% compared to baseline or 50% compared to the [Ca^2+]i change assayed during addition of 50 mM KCl (neurons only). Damaged, detached, high-baseline, and motion-activated cells were excluded from analysis.
(§2) In initial screens, HEK293 cells stably expressing the murine G-protein alpha-subunit Gα15, a unique Gα protein that non-selectively couples a large variety of GPCRs to phospholipase C ^30, were plated on poly-D-lysine-coated coverslips and transiently transfected with constructs encoding the MRGRPR of interest. 12–24 hr later, cells were loaded with the Fura 2-AM. Unless otherwise specified, compounds were perfused into the imaging chamber for approximately thirty seconds after a baseline period was established. Response was then monitored at 5 s intervals for an additional 60 s.
(§3) HEK293 cells stably expressing either MRGPRA1, MRGPRX4, and MRGRPC11 were seeded in poly-D-lysine-coated 96-well plates at 10,000 cells/well. Cells were loaded with Fura 2–AM, washed twice, and maintained in CIB. Haem metabolites were freshly dissolved in DMSO in dim light and then diluted into a buffer comprised of 20 mM Tris and 150 mM NaCl at pH 8.8. Potential changes in pH were evaluated prior to each experiment. EC50 values were determined from dose-responses performed in triplicate, repeated 2–4 times. To determine potential antagonism by QWF against bilirubin, cells were treated with varying doses of QWF for 1 min in CIB prior to application of agonist.
(§4) HEK293 stable cell lines expressing GFP-tagged MRGPRA3, MRGPRC11, MRGPRD, MRGPRX1, and MRGPRX2 were generated in previously described reports ([Liu et al., 2009]; [Liu et al., 2012]; [McNeil et al., 2015]). Briefly, plasmids containing the receptor of interest were transfected into HEK cells using Lipofectamine 3000. After 3 days, cells were then selected using 0.5 mg/mL G418. After 3 weeks, monoclonal colonies were established and each the highest expressing clones were identified. For this study, Mrgpra1 and MRGPRX4 were inserted into pEGFP-N1 and transfected into HEK293 cells. MRGPR-positive cells were selected using 0.5 mg/mL G418 for three weeks, after which GFP-positive cells were sorted by FACS and monoclonally expanded. Two lines expressing similar levels of MRGPRA1 and MRGPRX4, as measured by GFP fluorescence, were selected for study.

The next assay concerns the target T2, MRGPRX4 (Homo sapiens, UniProt Q96LA9).
T2 construct: expressed in transfected cells
Put plainly: Ca2+ imaging and concentration-Ca2+ response (EC50) in HEK293 cells expressing MRGPRX4. Type of assay: cell-based. The note with it: for Ca2+ response (concentration-response curve): MRGPRX4, triplicate wells (Fig 2I). As for the experimental part:
as §1, §2, §3, §4

The subject of assay [1] is mice. Put plainly: Cheek injection model: scratching bouts and wiping. Type of assay: in vivo, mouse. As for the experimental part:
All applicable behavioral tests were performed and analysed with the experimenter blind to genotype. […] There were no significant differences in itch between male and female mice. […] On the day before the experiment, animals were placed in the test chamber for 30 min before being subjected to a series of three mock injections with 5 min break periods in between. On the day of the experiment, animals were first allowed to acclimatize to the test chamber for 10 min before injection. […] A bout of scratching was defined as a continuous scratching movement with either hindpaw directed at the area of the injection site. In the cheek injection model, a wipe was defined as a single forepaw stroking the site of the injection. Use of both forepaws on the face or cheek was considered as grooming behavior. […] For H1R block, 30 mg/kg of cetirizine HCl (pH 7.4) was given intraperitoneally thirty minutes prior to injection of bilirubin. Licking behavior was quantified in seconds and identified as the licking of the toes or footpad of the hind paw site of injection that was neither preceded nor followed by licking of any other portion of the body.

In assay [2] the test system is mice. Nature of the assay: Scratching bouts after subcutaneous injection into the nape of the neck / back. Type of assay: in vivo, mouse. To be noted: for Scratching bouts binned according to 5 min intervals (time course of itch behavior): one column per mouse, values of a mouse sum to 1 (Fig 1B). As for the experimental part:
All applicable behavioral tests were performed and analysed with the experimenter blind to genotype. […] On the day before the experiment, animals were placed in the test chamber for 30 min before being subjected to a series of three mock injections with 5 min break periods in between. On the day of the experiment, animals were first allowed to acclimatize to the test chamber for 10 min before injection. […] A bout of scratching was defined as a continuous scratching movement with either hindpaw directed at the area of the injection site. In the cheek injection model, a wipe was defined as a single forepaw stroking the site of the injection. Use of both forepaws on the face or cheek was considered as grooming behavior. […] For H1R block, 30 mg/kg of cetirizine HCl (pH 7.4) was given intraperitoneally thirty minutes prior to injection of bilirubin. Licking behavior was quantified in seconds and identified as the licking of the toes or footpad of the hind paw site of injection that was neither preceded nor followed by licking of any other portion of the body.

T2 sequence (Q96LA9 whole entry): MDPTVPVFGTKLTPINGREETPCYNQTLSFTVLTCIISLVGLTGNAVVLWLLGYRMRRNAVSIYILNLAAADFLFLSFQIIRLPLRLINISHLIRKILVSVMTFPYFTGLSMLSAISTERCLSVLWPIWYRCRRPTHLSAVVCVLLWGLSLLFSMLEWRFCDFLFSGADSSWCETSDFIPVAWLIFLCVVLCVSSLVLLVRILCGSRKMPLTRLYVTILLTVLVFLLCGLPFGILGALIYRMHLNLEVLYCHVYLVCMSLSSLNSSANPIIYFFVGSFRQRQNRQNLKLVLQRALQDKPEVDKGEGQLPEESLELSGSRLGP

Consider `C=CC1=C(C)/C(=C/c2[nH]c(Cc3[nH]c(/C=C4\NC(=O)C(C)=C4C=C)c(C)c3CCC(=O)O)c(CCC(=O)O)c2C)NC1=O` [bilirubin, bilirubin IXα], for which the “Ca2+ response (concentration-Ca2+ response curve), replicate values” at MRGPRC11 ([Ligand] 3.90625e-6 M), at MRGPRC11 ([Ligand] 7.8125e-6 M), at MRGPRC11 ([Ligand] 1.5625e-5 M), at MRGPRC11 ([Ligand] 3.125e-5 M), on MRGPRC11 ([Ligand] 6.25e-5 M) and at MRGPRC11 ([Ligand] 0.000125 M) was 0 throughout. Further, the “Ca2+ response (concentration-Ca2+ response curve), replicate values” on MRGPRC11 ([Ligand] 0.00025 M) and at MRGPRC11 ([Ligand] 0.0005 M) was 0 in each case. At MRGPRX4, the “Calcium response / activation of MRGPRX4-expressing cells” value (“Calcium response / activation” below) was “only MRGPRX4-expressing cells responded”. Moreover, the “Ca2+ response (concentration-response curve)” value at MRGPRX4 ([Ligand] 1.95313e-6 M) is 0.6657 and 0.5292 and 0.882; at MRGPRX4 ([Ligand] 3.90625e-6 M), 0.5596 and 0.9735 and 0.9102; at MRGPRX4 ([Ligand] 7.8125e-6 M), 0.7828 and 0.7465 and 0.8173; at MRGPRX4 ([Ligand] 1.5625e-5 M), 0.5886 and 0.7131 and 0.5739; at MRGPRX4 ([Ligand] 3.125e-5 M) it was 0.9259 and 0.9222 and 0.8162; on MRGPRX4 ([Ligand] 6.25e-5 M) it was 1.178 and 1.234 and 1.122. Besides, the “Ca2+ response (concentration-response curve)” value at MRGPRX4 ([Ligand] 0.000125 M) was 1.451 and 1.464 and 1.382; on MRGPRX4 ([Ligand] 0.00025 M) it was 1.643 and 1.595 and 1.524. In addition, the “Wiping” value with mice [1] (6 µg bilirubin into the cheek, 10 min) is given as “neither wiping”. For the same compound, the “Scratching after cheek injection” value in the assay on mice [1] (cheek, 10 µl, 30 min) is given as “prompted dose-dependent scratching”. In addition, the Scratching bouts in the assay on mice [2] (60 μg bilirubin pre-incubated with 1% human serum albumin (+HSA), nape, WT mice (Fig 1A)) is reported as 7. In the assay on mice [2] (60 µg injected), the “Scratching of A1 KO animals versus WT mice” value is on record as “scratched significantly less than WT mice”. The “Scratching of BVR KO mice” value in the assay on mice [2] (150 µg chloroquine or 60 µg bilirubin, 30 min) is recorded as “scratched normally”. In addition, the “Scratching bouts to chloroquine plus bilirubin” value in the assay with mice [2] (1 mM chloroquine plus 500 µM bilirubin injected into back) is on record as “Synergism of bilirubin with chloroquine pruritus”. For the same compound, the “Less scratching of Mrgpr-cluster KO animals than wild type mice” value in the assay on mice [2] (bilirubin injection (Fig 1C)) is “approximately 75%”. Moreover, in the assay with mice [2] (bilirubin pre-incubated with excess human serum albumin), the “Scratching” value was “elicited fewer scratches”. Besides, the “Scratching at the site of injection” value with mice [2] (pathophysiologic concentrations, s.c. into the nape) was “stimulated scratching in a dose-dependent manner”. The “Scratching bouts binned according to 5 min intervals (time course of itch behavior)” value is 0 (10×) and 0.09677 and 0.08333 and 0.1304 and 0.2264 and 0.2353 and 0.07317 with mice [2] (time 5 min); 0.1786 and 0.5556 and 0.32 and 0.3226 and 0 (4×) and 0.1304 and 0.04 and 0.15 and 0.2642 and 0.1026 and 0.3529 and 0.2941 and 0.05128 with mice [2] (time 10 min); 0.25 and 0.4444 and 0.32 and 0.2258 and 0.1667 and 0.3913 and 0.66 and 0.1 and 0.1698 and 0.5116 and 0.2051 and 0.5 and 0.2941 and 0.2647 and 0.1951 and 0.2308 with mice [2] (time 15 min); 0.07143 and 0 (2×) and 0.16 and 0.06452 and 0.08333 and 0.3043 and 0.1 and 0.45 and 0.1509 and 0.4419 and 0.4872 and 0.1364 and 0.08824 and 0.2195 and 0.1026 in the assay with mice [2] (time 20 min); 0.07143 and 0 (3×) and 0.2 and 0.03226 and 0.3333 and 0.04348 and 0.06 and 0.15 and 0.04651 and 0.2727 and 0.1765 and 0.05882 and 0.3659 and 0.6154 with mice [2] (time 25 min); 0.4286 and 0 (5×) and 0.2581 and 0.3333 and 0.14 and 0.15 and 0.1887 and 0.2051 and 0.09091 and 0.1765 and 0.05882 and 0.1463 in the assay on mice [2] (time 30 min).
Turning to hemin, the “Calcium response / activation” value on MRGPRX4 was “had no effect”. The “Scratching behavior” value in the assay on mice [2] (metabolite injected into mice (Fig 1D)) is given as “did not induce scratching”.
On to `C=CC1=C(C)/C(=C/c2[nH]c(Cc3[nH]c(/C=C4\NC(=O)C(C)=C4C=C)c(C)c3CCC(=O)NCCS(=O)(=O)O)c(CCC(=O)NCCS(=O)(=O)O)c2C)NC1=O` [conjugated bilirubin, bilirubin ditaurate], for which the “Calcium response / activation” value at MRGPRX4 is listed as “activated MRGPRX4”. For the same compound, the “Ca2+ response (concentration-response curve)” value is 1.434 and 1.4137 and 1.361 at MRGPRX4 ([Ligand] 3.90625e-6 M); 1.454 and 1.384 and 1.354 on MRGPRX4 ([Ligand] 7.8125e-6 M); 1.439 and 1.34 and 1.332 on MRGPRX4 ([Ligand] 1.5625e-5 M); 1.623 and 1.449 and 1.378 on MRGPRX4 ([Ligand] 3.125e-5 M); 1.761 and 1.61 and 1.52 on MRGPRX4 ([Ligand] 6.25e-5 M); 1.756 and 1.629 and 1.666 on MRGPRX4 ([Ligand] 0.000125 M). Moreover, the “Ca2+ response (concentration-response curve)” value on MRGPRX4 ([Ligand] 0.00025 M) is 1.735 and 1.736 and 1.6528; at MRGPRX4 ([Ligand] 0.0005 M) it was 1.775 and 1.779 and 1.74.
